Test results reported in ChEMBL document CHEMBL5604063, “ASAP - DENV-2 NS2B-NS3 protease fluorescence dose response” (2024).
Values joined by “and” are separate entries in the source; they are usually repeats but may differ in a detail not shown here. Equal values may be shown once.

Key:
[1] = target: T1, Genome polyprotein (dengue virus type 2, UniProt P29990); type: functional, Thailand/16681/1984
[2] = target: T1, Genome polyprotein; type: functional, Thailand/16681/1984; remark: listed apart in the source

T1 sequence (P29990 1346-1475 limits assumed): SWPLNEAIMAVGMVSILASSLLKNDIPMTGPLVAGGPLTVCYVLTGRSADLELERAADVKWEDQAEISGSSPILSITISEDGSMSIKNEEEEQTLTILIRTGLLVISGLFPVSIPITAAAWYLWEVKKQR
T1 sequence (P29990 1476-2093 limits assumed): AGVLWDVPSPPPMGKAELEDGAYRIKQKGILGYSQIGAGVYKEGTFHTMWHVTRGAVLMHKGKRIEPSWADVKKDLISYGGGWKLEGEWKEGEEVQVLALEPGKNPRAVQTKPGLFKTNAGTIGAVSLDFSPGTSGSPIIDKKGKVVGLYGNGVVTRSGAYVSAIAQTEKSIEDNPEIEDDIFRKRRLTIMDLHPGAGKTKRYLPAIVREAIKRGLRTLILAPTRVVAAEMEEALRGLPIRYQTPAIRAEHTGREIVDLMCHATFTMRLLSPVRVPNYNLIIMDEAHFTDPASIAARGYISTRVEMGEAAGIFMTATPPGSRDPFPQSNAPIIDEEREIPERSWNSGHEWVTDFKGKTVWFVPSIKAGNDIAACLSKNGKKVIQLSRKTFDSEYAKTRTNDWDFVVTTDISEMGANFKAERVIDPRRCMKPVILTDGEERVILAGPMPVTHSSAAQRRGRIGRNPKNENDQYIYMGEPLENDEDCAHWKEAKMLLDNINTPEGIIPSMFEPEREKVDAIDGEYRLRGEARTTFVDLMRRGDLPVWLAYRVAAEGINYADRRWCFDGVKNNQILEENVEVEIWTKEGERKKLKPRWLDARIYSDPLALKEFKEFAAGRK

Row | SMILES | IC50 [1] | IC50 [2]
1 | O=C(Nc1cc(Cl)cc(C(=O)Nc2ccc([C@H]3CNCCO3)cc2)c1)OCc1ccccc1 | > 99.5 µM | > 100 µM
2 | Cn1nc(C(=O)Nc2cccc(CN)c2)cc1C1CC1 | > 99.5 µM | > 100 µM
3 | Cc1c(C(=O)Nc2cccc([C@@H](C)N)c2)cc(C2CC2)n1C | > 99.5 µM | > 100 µM
4 | NC[C@H]1C[C@H]1NC(=O)c1cc(Cl)cc(NC(=O)OCc2ccccc2)c1 | > 99.5 µM | > 100 µM
5 | CCc1onc(C2CCOCC2)c1C(=O)Nc1cccc(CN)c1 | > 99.5 µM | > 100 µM
6 | Cn1cc(C(=O)Nc2cccc(CN)c2)c(-c2cnccn2)n1 | > 99.5 µM | > 100 µM
7 | N#Cc1cc(Cl)cc(C(=O)Nc2cccc(-c3nnn[nH]3)c2)c1 | > 99.5 µM | > 100 µM
8 | O=C(Nc1cc(Cl)cc(C(=O)Nc2cccc(C(=O)O)c2)c1)OCc1ccccc1 | 42.7 µM | 29.1 µM and 25.3 µM
9 | N[C@H]1CCN(c2ccc(NC(=O)c3cc(Cl)cc(NC(=O)OCc4ccccc4)c3)cc2)C1 | 35.4 µM | > 100 µM
10 | CNC(=O)[C@H](Nc1cccc(CN)c1)c1cc(Cl)cc(NC(=O)OCc2ccccc2)c1 | > 99.5 µM | > 100 µM
11 | O=C(Nc1cccc(-n2nn[nH]c2=O)c1)c1cc(Cl)cc2c1CCC2 | > 99.5 µM | > 100 µM
12 | O=C(Nc1cc(Cl)cc(C(=O)Nc2ccc([C@H]3CCCNC3)cc2)c1)OCc1ccccc1 | 68.4 µM | > 100 µM
13 | NC[C@H]1C[C@@H]1NC(=O)c1cc(Cl)cc(NC(=O)OCc2ccccc2)c1 | > 99.5 µM | > 100 µM
14 | NC1CCN(c2ccc(NC(=O)c3cc(Cl)cc(NC(=O)OCc4ccccc4)c3)cc2)CC1 | 39.7 µM | > 100 µM
15 | O=C(Nc1cc(Cl)cc(C(=O)Nc2ccc3c(c2)COC3)c1)OCc1ccccc1 | > 99.5 µM | > 100 µM
16 | O=C(Nc1cccc(-c2nnn[nH]2)c1)c1cc(Cl)cc(C2CC2)c1 | 82.9 µM | 39.7 µM and 43.5 µM
17 | O=C(Nc1cc(Cl)cc(C(=O)Nc2ccc(N3CCCNCC3)cc2)c1)OCc1ccccc1 | 27.6 µM | > 100 µM
18 | Cc1c(C(=O)Nc2cc(CCCN)ccn2)cc(C2CC2)n1C | 74.6 µM and 35.9 µM | > 100 µM
19 | NCc1cccc(NC(=O)[C@H]2CCCN(C(=O)CC3CC3)C2)c1 | > 99.5 µM | > 100 µM
20 | NCc1cccc(NC(=O)c2nc(C3CC3)n(-c3ccccc3Cl)n2)c1 | > 99.5 µM | > 100 µM
21 | O=C(Nc1cc(Cl)cc(C(=O)Nc2ccc([C@H]3CCNC3)cc2)c1)OCc1ccccc1 | 19.5 µM and 24.6 µM | 39.4 µM

Row | SMILES | IC50 [1] | IC50 [2]
22 | O=C(Nc1cc(Cl)cc(C(=O)Nc2ccc(CC3CCNCC3)cc2)c1)OCc1ccccc1 | 14 µM and 17.3 µM | 33.3 µM
23 | Cc1cc(C(=O)Nc2cccc(CN)c2)c(NC(=O)[C@H]2CCCO2)s1 | > 99.5 µM | > 100 µM
24 | NCc1cccc(NC(=O)c2cc(Br)cc(-n3cnnn3)c2)c1 | > 99.5 µM | > 100 µM
25 | O=C(Nc1cc(Cl)cc(C(=O)N[C@H](c2nn[nH]n2)C2CNC2)c1)OCc1ccccc1 | > 99.5 µM | > 100 µM
26 | COc1cc(C(=O)Nc2cccc(CN)c2)cc2cn(C)nc12 | > 99.5 µM | > 100 µM
27 | O=C(Nc1cc(Cl)cc(C(=O)Nc2ccc3c(c2)CCNC3)c1)OCc1ccccc1 | 50 µM and 60.1 µM | > 100 µM
28 | Cc1oc(C(=O)Nc2cccc(CN)c2)cc1COc1ccccc1 | > 99.5 µM | > 100 µM
29 | CN(C)[C@H](C(=O)Nc1cccc(CN)c1)c1cc(Cl)cc(Cl)c1 | > 99.5 µM | > 100 µM
30 | Cn1nc(C(=O)Nc2cccc(CN)c2)c2c1CCS(=O)(=O)C2 | > 99.5 µM | > 100 µM
31 | O=C(Nc1cccc(-n2nn[nH]c2=O)c1)c1cc(Cl)cc(N2CCCC2=O)c1 | > 99.5 µM | > 100 µM
32 | CC[C@H](Cc1nnn[nH]1)c1ccc(NC(=O)c2cc(Cl)cc3c2CCC3)cc1 | 83.6 µM | 58.8 µM
33 | CC[C@H](Cc1nnn[nH]1)c1ccc(NC(=O)c2cc(Cl)cc(C3CC3)c2)cc1 | 55.2 µM | 28.7 µM and 35.1 µM
34 | Cc1c(C(=O)Nc2cccc(C3CCNCC3)c2)cc(C2CC2)n1C | > 99.5 µM | > 100 µM
35 | O=C(Nc1cc(Cl)cc(C(=O)Nc2ccc3c(c2)C(=O)OC3)c1)OCc1ccccc1 | > 99.5 µM | > 100 µM
36 | O=C(Nc1cc(Cl)cc(C(=O)Nc2ccc3c(c2)CNC3=O)c1)OCc1ccccc1 | > 99.5 µM | > 100 µM
37 | Cc1c(C(=O)Nc2n[nH]c3c2CNC3)cc(C2CC2)n1C | > 99.5 µM | > 100 µM
38 | Cc1c(C(=O)Nc2ccc(CCN)cc2)cc(C2CC2)n1C | > 99.5 µM | > 100 µM
39 | CC[C@H](Cc1nnn[nH]1)c1ccc(NC(=O)c2cc(Cl)cc(Cl)c2OC)cc1 | > 99.5 µM | > 100 µM
40 | O=C(O)Cc1cccc(NC(=O)c2cc(Cl)cc(NC(=O)OCc3ccccc3)c2)c1 | 74.6 µM | 40 µM
41 | CCNC(=O)Nc1cc(Cl)cc(C(=O)O)c1 | > 99.5 µM | > 100 µM
42 | NCc1cccc(NC(=O)c2cc(C(F)(F)F)cnc2N2CCOCC2)c1 | > 99.5 µM | > 100 µM
